How the values were obtained:
Assay in all cases: Post-emergence herbicidal glasshouse test, percentage damage to the plant
Type in all cases: in vivo
[1] = test system: Ipomoea hederacea (IPOHE)
Method: (§1) Seeds of a variety of test species are sown in standard soil in pots:—Solanum nigrum (SOLNI), Amaranthus retoflexus (AMARE), Setaria faberi (SETFA), Alopecurus myosuroides (ALOMY), Echinochloa crus-galli (ECHCG), Ipomoea hederacea (IPOHE). After 8 days cultivation (post-emergence) under controlled conditions in a glasshouse (at 24/16° C., day/night; 14 hours light; 65% humidity), the plants are sprayed with an aqueous spray solution derived from the formulation of the technical active ingredient in acetone/water (50:50) solution containing 0.5% Tween 20 (polyoxyethelyene sorbitan monolaurate, CAS RN 9005-64-5). Compounds are applied at 1000 g/ha. The test plants are then grown in a glasshouse under controlled conditions in a glasshouse (at 24/16° C., day/night; 14 hours light; 65% humidity) and watered twice daily. After 13 days, the test is evaluated for the percentage damage caused to the plant. The biological activities are shown in the following table on a five point scale (5=80-100%; 4=60-79%; 3=40-59%; 2=20-39%; 1=0-19%). A comparative experiment is conducted to compare the biological efficacy of a compound of the present invention with those of WO 2011/045271. The test is performed as outlined above using the following compounds. Three different application rates are employed (250 g/ha, 500 g/ha and 1000 g/ha).

[2] = test system: Amaranthus retoflexus (AMARE)
Method: as §1

[3] = test system: Solanum nigrum (SOLNI)
Method: as §1

[4] = test system: Setaria faberi (SETFA)
Method: as §1

[5] = test system: Alopecurus myosuroides (ALOMY)
Method: as §1

[6] = test system: Echinochloa crus-galli (ECHCG)
Method: as §1

[7] = post-emergence, 1000 g/ha, evaluated after 13 days
[8] = comparative experiment, rate 250 g/ha
[9] = comparative experiment, rate 500 g/ha
[10] = comparative experiment, rate 1000 g/ha

Compound	POST Application IPOHE, percentage damage (five point scale) [1, 7]	POST Application AMARE, percentage damage (five point scale) [2, 7]	POST Application SOLNI, percentage damage (five point scale) [3, 7]	POST Application SETFA, percentage damage (five point scale) [4, 7]	POST Application ALOMY, percentage damage (five point scale) [5, 7]	POST Application ECHCG, percentage damage (five point scale) [6, 7]	also measured
Cc1cccc2ccn(C3C(=O)C=NN(C)C3=O)c12 (stereo not drawn) [Compound 1.008]	2 (2=20-39%)	1 (1=0-19%)	4 (4=60-79%)	1 (1=0-19%)	1 (1=0-19%)	1 (1=0-19%)	–
COCCOCC1=NN(C)C(=O)C(n2c(Cl)c(Cl)c3ccccc32)C1=O (stereo not drawn) [Compound 2.015]	5 (5=80-100%)	2 (2=20-39%)	4 (4=60-79%)	1 (1=0-19%)	1 (1=0-19%)	1 (1=0-19%)	–
CC1=NN(C)C(=O)C(n2c(Br)c(Br)c3ccccc32)C1=O (stereo not drawn) [Compound 1.024]	5 (5=80-100%)	5 (5=80-100%)	5 (5=80-100%)	2 (2=20-39%)	1 (1=0-19%)	2 (2=20-39%)	–
Cc1nn(C)c(=O)c(-n2c(Cl)c(Cl)c3ccccc32)c1OC(=O)c1ccc([N+](=O)[O-])cc1 [Compound 3.009]	5 (5=80-100%)	5 (5=80-100%)	5 (5=80-100%)	1 (1=0-19%)	1 (1=0-19%)	1 (1=0-19%)	–
CC(C)C1=NN(C)C(=O)C(n2c(Cl)c(Cl)c3ccccc32)C1=O (stereo not drawn) [Compound 2.013]	2 (2=20-39%)	3 (3=40-59%)	4 (4=60-79%)	1 (1=0-19%)	1 (1=0-19%)	1 (1=0-19%)	–
CN1N=C(C#N)C(=O)C(n2c(Cl)c(Cl)c3ccccc32)C1=O (stereo not drawn) [Compound 2.001]	5 (5=80-100%)	3 (3=40-59%)	5 (5=80-100%)	2 (2=20-39%)	1 (1=0-19%)	2 (2=20-39%)	–
CC(C)OCC1=NN(C)C(=O)C(n2c(Cl)c(Cl)c3ccccc32)C1=O (stereo not drawn) [Compound 2.014]	5 (5=80-100%)	2 (2=20-39%)	4 (4=60-79%)	1 (1=0-19%)	1 (1=0-19%)	1 (1=0-19%)	–
Cc1nn(C)c(=O)c(-n2c(Cl)c(Cl)c3ccccc32)c1OC(=O)OC(C)C [Compound 3.011]	5 (5=80-100%)	5 (5=80-100%)	5 (5=80-100%)	2 (2=20-39%)	1 (1=0-19%)	4 (4=60-79%)	–
Cc1cc(Cl)nn1C1C(=O)C=NN(C)C1=O (stereo not drawn) [Compound B, reference compound]	–	–	–	–	–	–	POST Application IPOHE, percentage damage (five point scale) [1, 8]: 1 (1=0-19%); POST Application IPOHE, percentage damage (five point scale) [1, 9]: 2 (2=20-39%); POST Application IPOHE, percentage damage (five point scale) [1, 10]: 5 (5=80-100%); POST Application AMARE, percentage damage (five point scale) [2, 8]: 2 (2=20-39%); POST Application AMARE, percentage damage (five point scale) [2, 9]: 3 (3=40-59%); POST Application AMARE, percentage damage (five point scale) [2, 10]: 4 (4=60-79%); POST Application SOLNI, percentage damage (five point scale) [3, 8]: 2 (2=20-39%); POST Application SOLNI, percentage damage (five point scale) [3, 9]: 3 (3=40-59%); POST Application SOLNI, percentage damage (five point scale) [3, 10]: 4 (4=60-79%); POST Application SETFA, percentage damage (five point scale) [4, 8]: 1 (1=0-19%); POST Application SETFA, percentage damage (five point scale) [4, 9]: 1 (1=0-19%); POST Application SETFA, percentage damage (five point scale) [4, 10]: 1 (1=0-19%); POST Application ALOMY, percentage damage (five point scale) [5, 8]: 1 (1=0-19%); POST Application ALOMY, percentage damage (five point scale) [5, 9]: 1 (1=0-19%); POST Application ALOMY, percentage damage (five point scale) [5, 10]: 2 (2=20-39%); POST Application ECHCG, percentage damage (five point scale) [6, 8]: 1 (1=0-19%); POST Application ECHCG, percentage damage (five point scale) [6, 9]: 1 (1=0-19%); POST Application ECHCG, percentage damage (five point scale) [6, 10]: 2 (2=20-39%)
CSC1=NN(C)C(=O)C(n2c(Cl)c(Cl)c3ccccc32)C1=O (stereo not drawn) [Compound 2.003, 4-(2,3-dichloroindol-1-yl)-2-methyl-6-methylsulfanyl-pyridazine-3,5-dione]	4 (4=60-79%)	2 (2=20-39%)	2 (2=20-39%)	1 (1=0-19%)	1 (1=0-19%)	1 (1=0-19%)	–
CC(C)N1N=CC(=O)C(n2cc(Cl)c3ccccc32)C1=O (stereo not drawn) [Compound 1.010]	1 (1=0-19%)	1 (1=0-19%)	3 (3=40-59%)	1 (1=0-19%)	1 (1=0-19%)	1 (1=0-19%)	–
CC(=O)Oc1c(C)nn(C)c(=O)c1-n1nc(Cl)c2ccccc21 [Compound 3.006]	5 (5=80-100%)	4 (4=60-79%)	5 (5=80-100%)	1 (1=0-19%)	2 (2=20-39%)	4 (4=60-79%)	–
